The conditions of data set [1]: 30 minutes in an autoclave; cited from earlier work.
For the next data set, the system named is IIIB strain of HIV. As to the kind of experiment: microbe, parasite or virus in culture. It is filed as cell-based. Here is the method: The following test procedure was employed.
In a classical virology assay aimed at testing the antiviral activity of a drug, the virus is added in the presence of a drug to target cells for the determined period of inoculation time, e.g., 1 hour, and then nonadsorbed virus is washed away and inoculated cells are exposed again to a fresh drug. After several days, a period corresponding to the replication cycle of the virus, the dose-effect of the drug is tested by measuring the quantity of newly-synthesized virus in the culture supernates of inoculated cells. But this strategy is not truly representative of the in vivo situation. It is clear that in a real-life situation the virus is not "flushed" from a human body prior to drug administration. […] In the present assay, virus, drug and cells were left without washing in the culture until tested for virus production 3 days later. This period of time presents one full cycle of HIV replication, Dimitrov et al., J. Virol. 67:2182-90, 1993. It is believed that this type of approach represents more closely and simulates the situation which exists in vivo.
p24 ELISA. Reduction of productive infection was evaluated by a commercial ELISA kit for viral core gag p24 product according to the manufacturer's instructions (Coulter, Hialeah, Fla.) as follows. Detergent-lysed samples of viral culture medium that were incubated in wells (96-well format), precoated with anti-p24 antibody, were screened for gag antigen by adding biotin-labeled anti-p24 antibody followed by streptavidin-peroxidase conjugate. The amount of captured p24 was measured by comparing the optical density (450 nm) of peroxidase substrate with supplied standards containing known amounts of p24. The lower limit of reliable sensitivity of this kit is 7.8 pg/ml.

The next data set deals with MT-4 lymphocytes. Particulars: MT-4 cells, 3 days continuous exposure; approximate log10 concentration.
In a further data set the test system is HIV. Conditions: cited from earlier work; for Dose protecting against / abrogating HIV infection in vitro: literature figures, equivalent of the % or μM value.
Setting [2] is: MT-4 cells, HIV IIIB, 3 days, p24 ELISA, approximate log10 concentration.

Converted amounts (≈) assume the structure as drawn.

Take gramicidin S: the “Retention of biological activity after autoclaving” value in data set [1] is recorded as “retains its biological activity”.

In general, IC50 refers to the midpoint of a concentration-inhibition curve. For the compound `Cc1cc2c(C(C)C)c(O)c(O)c(C=O)c2c(O)c1-c1c(C)cc2c(C(C)C)c(O)c(O)c(C=O)c2c1O` [Gossypol, gossypol], in the data set with IIIB strain of HIV (Human immunodeficiency virus 1, MT4, 72 h, MT-4 cells, HIV IIIB, 3 days, p24 ELISA, approximate log10 concentration, read-out: IC50 (50% inhibition of HIV infection)), the IC50 was approximately 1 µg/mL (≈ 1.93 µM). Besides, the “Dose giving complete protection against HIV infection” value in the data set on IIIB strain of HIV (MT-4 cells, HIV IIIB) amounted to 10 µg/mL. Besides, the “IC100 (100% inhibition of HIV infection)” value with IIIB strain of HIV (setting [2]) was approximately 10 µg. Also, in the data set on MT-4 lymphocytes, the “CC100 (cytotoxicity)” value was approximately 10 µg. Moreover, the “Dose protecting against / abrogating HIV infection in vitro” value with HIV was 50 µg/mL. Moreover, the “Concentration reported to abrogate HIV infection” value in the data set on HIV (literature in vitro studies) was 100 µM.

Turning to gramicidin, the “IC100 (100% inhibition of HIV infection)” value with IIIB strain of HIV (setting [2]) is approximately 0.01 µg. Also, the “Cytopathic effect (membrane ballooning, syncytia)” value with IIIB strain of HIV (wells where viral replication was completely inhibited) is reported as “No signs of cytophatic effect were observed”.

With nonoxynol-9, in the data set with IIIB strain of HIV (MT-4 cells, HIV IIIB), the “Dose giving complete protection against HIV infection” value was 10 µg/mL. Moreover, in the data set on IIIB strain of HIV (setting [2]), the “IC50 (50% inhibition of HIV infection)” value is listed as approximately 10 ng and the “IC100 (100% inhibition of HIV infection)” value is approximately 10 µg. Also, the “CC100 (cytotoxicity)” value in the data set on MT-4 lymphocytes is approximately 10 µg. Further, in the data set on HIV, the “Dose protecting against / abrogating HIV infection in vitro” value was 50 µg/mL. Further, the “Dose at which the protective effect was generally observed in vitro” value in the data set on HIV (literature review of in vitro investigations) was 0.05%.

The values are drawn from US5552382A (priority 1994, dated 1996).
